Results reported in US20250011288A1 (BRISTOL-MYERS SQUIBB COMPANY, priority 2021, published 2025).

How the values were obtained:
[1] = intravenous (IV) formulation; cited from earlier work
human RXFP1 = biological target: T1, human RXFP1 (Homo sapiens, UniProt Q9HBX9); test: human RXFP1 (hRXFP1) HEK293 cAMP assay (HTRF); assay type: cell-based; details: HEK293 cells stably expressing human RXFP1, 30 min at room temperature
T1 construct: expressed in transfected cells
T1 sequence (Q9HBX9 1-757): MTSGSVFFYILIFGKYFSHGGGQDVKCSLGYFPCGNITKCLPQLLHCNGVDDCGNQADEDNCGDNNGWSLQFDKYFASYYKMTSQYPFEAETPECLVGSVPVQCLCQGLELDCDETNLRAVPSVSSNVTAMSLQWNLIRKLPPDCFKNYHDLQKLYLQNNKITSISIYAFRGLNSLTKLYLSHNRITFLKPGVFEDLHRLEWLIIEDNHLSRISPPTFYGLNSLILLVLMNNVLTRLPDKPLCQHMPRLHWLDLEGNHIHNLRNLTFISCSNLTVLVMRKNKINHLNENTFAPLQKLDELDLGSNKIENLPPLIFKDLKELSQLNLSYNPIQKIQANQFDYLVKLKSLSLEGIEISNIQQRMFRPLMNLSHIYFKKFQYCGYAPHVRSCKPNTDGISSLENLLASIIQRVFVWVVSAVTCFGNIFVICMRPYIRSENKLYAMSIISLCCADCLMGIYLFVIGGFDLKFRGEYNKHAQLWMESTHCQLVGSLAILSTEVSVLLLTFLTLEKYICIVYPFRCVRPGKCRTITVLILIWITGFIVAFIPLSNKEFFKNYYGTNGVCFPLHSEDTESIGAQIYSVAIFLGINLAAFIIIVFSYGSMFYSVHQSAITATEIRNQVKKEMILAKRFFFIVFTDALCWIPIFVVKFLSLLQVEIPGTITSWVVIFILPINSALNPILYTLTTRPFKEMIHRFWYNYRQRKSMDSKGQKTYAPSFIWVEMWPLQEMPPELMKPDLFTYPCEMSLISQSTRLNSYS
In short: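 Intracellular cAMP was quantified by HTRF after a 30 min room-temperature exposure of hRXFP1-HEK293 cells (1500/well) to compound at 0.010 nM–50 µM final, 2% DMSO. Buffer was HBSS with 20 mM HEPES, 0.05% BSA and 0.5 mM IBMX; values came from a 4-parameter logistic fit.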

EC50 (human RXFP1) | Compound | first-phase pharmacokinetic half-life [1]
 | Serelaxin | 5.4 min
4800 nM | COc1cc2c(cc1C(=O)N[C@@H]1C3CCC(/C3=C/C3CC3)[C@@H]1C(=O)Nc1ccc(F)c(C(F)(F)F)c1)CCN(CCS(C)(=O)=O)C2 (stereo partly drawn) [Example 92] | 
0.8 nM | COc1ncc(-c2cc([C@H](OC(=O)Nc3ccccc3)C(F)(F)F)ccc2F)cc1C(=O)N[C@@H]1C2CCC(/C2=C/C2CC2)[C@@H]1C(=O)Nc1ccc(F)c(C(F)(F)F)c1 (stereo partly drawn) [Example 186, (1S)-1-[3-(5-{[(2R,3S,7Z)-7-(cyclopropyl-methylidene)-3-{[4-fluoro-3-(trifluoromethyl)phenyl]carbamoyl}bicyclo[2.2.1]heptan-2-yl]carbamoyl}-6-methoxypyridin-3-yl)-4-fluorophenyl]-2,2,2-trifluoroethyl N-phenylcarbamate] | 
